# Results published in PMC7508162 (Frontiers in Pharmacology, 2020).
# Biological target: T1, NTPDase3 (Homo sapiens, UniProt O75355)
# T1 sequence (O75355 1-529): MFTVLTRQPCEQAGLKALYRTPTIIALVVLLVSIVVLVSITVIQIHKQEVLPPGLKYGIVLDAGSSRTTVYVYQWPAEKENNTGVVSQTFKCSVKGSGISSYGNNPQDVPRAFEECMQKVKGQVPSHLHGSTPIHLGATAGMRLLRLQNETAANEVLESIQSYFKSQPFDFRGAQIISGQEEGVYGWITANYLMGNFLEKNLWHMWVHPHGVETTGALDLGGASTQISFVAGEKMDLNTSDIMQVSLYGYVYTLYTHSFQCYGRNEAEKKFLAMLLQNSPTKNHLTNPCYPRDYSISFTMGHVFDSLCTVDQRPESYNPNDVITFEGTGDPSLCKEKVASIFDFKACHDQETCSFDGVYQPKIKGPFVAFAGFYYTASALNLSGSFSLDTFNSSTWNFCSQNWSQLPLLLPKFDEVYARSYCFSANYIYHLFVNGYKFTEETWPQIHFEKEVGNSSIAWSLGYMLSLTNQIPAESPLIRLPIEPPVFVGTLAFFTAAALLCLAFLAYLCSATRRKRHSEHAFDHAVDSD
# Test: Malachite green assay for NTPDase3
# Format: biochemical
# Design: expressed in transfected cells; host or cells: COS-7 cell membrane preparations
# Details: ATP 50 µM, recombinant COS-7 cell membrane preparation, read-out: Ki ± SEM
# Procedure: The enzymatic activity assay was determined essentially as previously described ([Cogan et al., 1999]) with a few adaptations. The reaction buffer contained 10 mM HEPES, 2 mM CaCl2, 1 mM MgCl2, pH 7.4 in a final volume of 50 μl in transparent 96-well half area plates. For CD39 (NTPDase1), we made use of human umbilical cord membranes preparations which express high levels of the enzyme. For the other human NTPDase isoenzymes, we had to resort to recombinant expression. Human umbilical cord membrane preparations (250 ng) natively expressing high amounts of CD39, or the respective recombinant COS-7 cell membrane preparations expressing the appropriate NTPDase isoenzyme (ca. 100 ng of protein depending on enzyme activity) ([Sévigny et al., 1997]; [Lecka et al., 2013]) with or without inhibitor were preincubated at 37°C and gentle shaking (Eppendorf Thermomixer comfort at 500 rpm) for 5 min. The amount of enzyme preparation was adjusted to ensure 10–20% of substrate conversion. […] ([Kukulski et al., 2005]). After 15 min of incubation at 37°C with gentle shaking, the reaction was stopped by adding the detection reagents (20 µl malachite green solution, 0.6 mM, and 30 µl ammonium molybdate solution, 20 mM, in sulfuric acid, 1.5 M). The released (inorganic) phosphate was quantified after 20 min of gentle shaking at 25°C by measuring the absorption of the malachite green-phosphomolybdate complex at 600 nm using a BMG PheraStar FS plate reader (BMG Labtech GmbH, Ortenberg, Germany). The corrected absorption was calculated by subtracting the absorption of the negative control samples, which were incubated with denatured enzyme (90°C, 15 min), and the inhibition was calculated as follows:
# % Inhibition=(B−T)/B*100% […]
# Full concentration-inhibition curves were determined with inhibitor concentrations ranging from 0.1 to 300 µM in the presence of 2% DMSO. Three independent experiments were performed (n = 3) and curves were calculated by the GraphPad Prism 8 software. The Ki value was calculated using the Cheng-Prusoff equation for competitive inhibitors: […]
row,SMILES,Ki [µM]
1,"CCN(CC)c1ncnc2c1ncn2[C@@H]1O[C@H](COP(=O)(O)OP(=O)(O)C(Br)(Br)P(=O)(O)O)[C@@H](O)[C@H]1O [ARL67156, (Dibromo((((((2R,3S,4R,5R)-5-(6-(diethylamino)-9H-purin-9-yl)-3,4-dihydroxytetrahydrofuran-2-yl)methoxy)-(hydroxy)-phosphoryl)oxy)(hydroxy)phosphoryl)methyl)-phosphonic Acid, reference compound]",7.94 ± 1.36
2,"CCCCSc1nc2c(N)ncnc2n1[C@@H]1O[C@H](COP(=O)(O)OP(=O)(O)C(Br)(Br)P(=O)(O)O)[C@@H](O)[C@H]1O [Compound 31, (((((((2R,3S,4R,5R)-5-(6-Amino-8-(butylthio)-9H-purin-9-yl)-3,4-dihydroxytetrahydrofuran-2-yl)methoxy)(hydroxy)-phosphoryl)oxy)(hydroxy)phosphoryl)dibromomethyl)-phosphonic Acid]",1.54 ± 0.34
3,"CCCCNc1nc2c(NC)ncnc2n1[C@@H]1O[C@H](COP(=O)(O)OP(=O)(O)C(Br)(Br)P(=O)(O)O)[C@@H](O)[C@H]1O [Compound 33, (Dibromo((((((2R,3S,4R,5R)-5-(8-(butylamino)-6-(methylamino)-9H-purin-9-yl)-3,4-dihydroxy-tetrahydrofuran-2-yl)methoxy)(hydroxy)phosphoryl)oxy)-(hydroxy)phosphoryl)methyl)-phosphonic Acid]",7.8 ± 1.34
